One assay concerns the target T1, hCA I (Homo sapiens, UniProt P00915).
T1 construct: made in house
Description: stopped-flow CO2 hydrase assay, hCA I. Format: biochemical.

Another assay has as its target T2, hCA II (Homo sapiens, UniProt P00918).
T2 construct: made in house
Description: stopped-flow CO2 hydrase assay, hCA II. Format: biochemical.

In a further assay the target is T3, hCA IV (Homo sapiens, UniProt P22748).
T3 construct: made in house
Description: stopped-flow CO2 hydrase assay, hCA IV. Format: biochemical.

The target of another assay is T4, hCA XII (Homo sapiens, UniProt O43570).
T4 construct: made in house
T4 sequence (O43570 25-354): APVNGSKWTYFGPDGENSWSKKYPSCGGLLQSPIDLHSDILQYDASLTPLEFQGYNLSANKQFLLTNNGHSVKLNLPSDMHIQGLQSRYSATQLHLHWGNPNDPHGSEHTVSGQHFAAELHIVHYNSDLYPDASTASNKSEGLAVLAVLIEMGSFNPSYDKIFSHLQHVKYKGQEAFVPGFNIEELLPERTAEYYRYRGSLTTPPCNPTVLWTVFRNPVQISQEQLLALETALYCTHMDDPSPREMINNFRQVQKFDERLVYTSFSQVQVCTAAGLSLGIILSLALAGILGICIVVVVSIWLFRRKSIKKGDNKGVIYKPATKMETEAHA
Description: stopped-flow CO2 hydrase assay, hCA XII. It counts as biochemical.

The test system of a further assay is intraocular pressure. Description: intraocular pressure (IOP) lowering in normotensive rabbits. It counts as in vivo. Conditions: 1% eye drop, normotensive New Zealand White rabbits, n = 6, tested twice; comparable to 1 (dorzolamide, 2% eye drops).

SMILES strings stand for the structures. Like-named read-outs stand apart in the source and are kept apart here.

T3 sequence (P22748 19-312): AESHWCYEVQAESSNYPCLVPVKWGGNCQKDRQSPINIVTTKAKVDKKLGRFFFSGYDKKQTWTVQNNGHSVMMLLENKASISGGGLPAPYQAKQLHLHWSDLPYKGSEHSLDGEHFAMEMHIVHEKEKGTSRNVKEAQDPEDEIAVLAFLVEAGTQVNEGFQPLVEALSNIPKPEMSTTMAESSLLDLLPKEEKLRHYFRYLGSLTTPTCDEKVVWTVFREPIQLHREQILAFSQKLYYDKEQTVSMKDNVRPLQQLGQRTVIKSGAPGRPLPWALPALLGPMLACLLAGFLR
T1 sequence (P00915 whole entry): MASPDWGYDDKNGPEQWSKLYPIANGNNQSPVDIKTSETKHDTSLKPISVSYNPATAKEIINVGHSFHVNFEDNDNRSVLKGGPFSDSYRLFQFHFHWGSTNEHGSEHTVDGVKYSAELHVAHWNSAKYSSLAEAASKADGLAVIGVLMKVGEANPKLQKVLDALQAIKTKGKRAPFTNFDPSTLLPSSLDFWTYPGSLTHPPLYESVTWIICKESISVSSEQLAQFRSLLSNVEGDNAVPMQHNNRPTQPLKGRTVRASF

As for `NS(=O)(=O)c1ccc(-c2cnc(C(=O)N3CCNCC3)o2)s1` [7a], the Ki at hCA I is 4 nM; at hCA II it was 0.069 nM; on hCA IV, 21.6 nM; on hCA XII, 3.9 nM. Besides, the IOP lowering effect result in the assay with intraocular pressure was “clear IOP lowering effect”.

As for `NS(=O)(=O)c1ccc(-c2cnc(C(=O)NC3CCNCC3)o2)s1` [7b], the Ki at hCA I came out at 56.8 nM; on hCA XII, 8.9 nM.

As for `NC1CCN(C(=O)c2ncc(-c3ccc(S(N)(=O)=O)s3)o2)CC1` [7c], the Ki turned out to be 31.3 nM on hCA I, 0.41 nM on hCA II, 30.6 nM at hCA IV and 5.7 nM on hCA XII.

For the compound `NCCNC(=O)c1ncc(-c2ccc(S(N)(=O)=O)s2)o1` [7d], the Ki at hCA I was determined as 72.9 nM; on hCA XII, 9.3 nM.

`NCCCNC(=O)c1ncc(-c2ccc(S(N)(=O)=O)s2)o1` [7e]: the Ki at hCA I (mean from three assays by stopped flow technique, errors ± 5–10%, read-out: Ki hCA I) worked out at 58.3 nM; on hCA II (mean from three assays by stopped flow technique, errors ± 5–10%, read-out: Ki hCA II), 3.1 nM; on hCA IV (mean from three assays by stopped flow technique, errors ± 5–10%, read-out: Ki hCA IV), 4.6 nM; on hCA XII (mean from three assays by stopped flow technique, errors ± 5–10%, read-out: Ki hCA XII), 8.8 nM.

The values above are taken from paper PMC8973362, “5-(Sulfamoyl)thien-2-yl 1,3-oxazole inhibitors of carbonic anhydrase II with hydrophilic periphery” (Journal of Enzyme Inhibition and Medicinal Chemistry, 2022).
